# Data from patent US20100279935A1, “COMPOSITIONS FOR INDUCING LABOR AND ASSOCIATED METHODS” (priority 2007, published 2010).
# “Also recorded” adds a separate entry of the source.
# Legend:
# Type in all cases: cell-based, human
# [1] = tested on: hTERT myometrial smooth muscle cells; experiment: Myometrial cell contractility assay (collagen disk retraction); settings: for effect of inhibitor on contractility of cells treated with OT, I-MEL or both: pretreatment 1 hr, 4P-PDOT 10 nM, C1 10 μM, U73122 concentration not given
# Method: (§1) Telomerase immortalized myometrial cells (hTert) were maintained in DMEM/F12 (Mediatech) medium with 10% FBS (Hyclone) with penicillin/streptomycin and gentamycin at 37° C. and 5% CO2. Cells were trypsinized at 90% confluency and plated in T175 cell culture flasks at a 1:5 dilution or 6 well plates at 20,000 cells per well. For pharmacological experiments cells were treated with iodo-melatonin (Tocris; USA), oxytocin (Sigma-Aldrich; USA) or cotreated as described in the Results. Pharmacological inhibitors, 4-phenyl-2-propionamidotetralin (4P-PDOT), a MT2R specific antagonist, the general PKC inhibitor C1, and the phospholipase C inhibitor, U73122 (all from Tocris) were applied as a pretreatment 1 hr prior to application of IMEL or OT. After treatment the cells were trypsinized, pelleted, washed in phosphate-buffered saline, and frozen at −20° C. until further analysis.
# Myometrial cell contractility was assayed using a collagen disk retraction assay as described by Devost and Zingg^16 plating 10,000 hTERT cells per well. Samples were treated as described in the Results and each treatment was performed in triplicate. Myometrial cell contractility was quantified by capturing images of the fixed collagen disks with a digital camera and analyzing for total area using AIS Image Analysis Software (Ontario, Canada). The results were normalized to the cell-free control sample areas and expressed as a percentage of untreated control area.
# [2] = tested on: gap junction communication in hTERT cells; experiment: Lucifer yellow dye migration (scrape loading) assay
# Method: Lucifer yellow scrape loading assays were performed in accordance with the procedures of El-Fouly et al^17. Cells were grown to confluency in […] cell culture dishes, washed with warm phosphate buffered saline (PBS) and treated with 2 mL of pre-warmed 0.05% lucifer yellow in PBS solution. The cells were then scraped by drawing a scalpel across the plate. After two minutes at room temperature the plates were washed three times with prewarmed PBS and returned to normal medium. The plates were then photographed at 10 minutes after scraping using a digital camera through a Zeiss Axiovert 40CFL Microscope at a 100× and 200× magnification. Each treatment condition was repeated three times to ensure reproducibility.
# [3] = tested on: connexin 43 mRNA in hTERT cells; experiment: Quantitative PCR of Cx43 mRNA; settings: for effect of inhibitor on I-MEL-induced Cx43 expression: co-treatment with I-MEL (FIG. 3C)
# Method: as §1
# Cellular total RNA was extracted with the RNEasy® kit (QIAGEN; Valencia, Calif., USA) according to the manufacturer's protocol. The RNA concentration was measured with the Nanodrop® photometer and then reverse transcribed to cDNA by means of the iScript® reverse transcription system (Bio-Rad Laboratories; USA). Quantitative real-time PCR was performed on a Bio-Rad iCycler® using iQ SYBR Green Supermix® (Bio-Rad), together with 1 μl of sense and antisense primers ([…]) of the transcript of interest and 2 μl of template cDNA. The following thermal cycling parameters were used: initial heat activation of the DNA-polymerase was performed at 95° C. for 5 min. Thereafter 40 cycles at 95° C. (15 sec), 58° C. (30 sec), and 72° C. (30 sec) were run. After thermocycling the iCycler performs an automatic melting curve, which entails cooling to 55° C. for 10 sec and then increasing temperatures in 0.2° C. increments up to 90° C. This controls for primer-dimer formation and other nonspecific effects. Quantification of the data was achieved by the Bio-Rad iCycler software using a standard curve from a primer-specific dilution series for the PCR product. Data were normalized against expression of the housekeeping gene glyceraldehyde-3-phosphate dehydrogenase (GAPDH). The primer sequences used for Cx43, and GAPDH quantification are as follows: […]
# [4] = tested on: myosin light chain phosphorylation (Ser19) in hTERT cells; experiment: Western blot for phosphorylated myosin light chain at Ser19
# Method: as §1
# For in vitro investigations cultured hTERT cells were collected by trypsinization and gentle scraping. Cells were suspended in PBS and pelleted by centrifugation. Protein extraction was performed according to the method of Shearman and colleagues^15. Following electrophoretic separation on a 10% SDS-polyacrylamide gel, proteins were semi-dry blotted in buffer onto a Whatman PROTRAN Nitrocellulose membrane (Whatman; Germany). Molecular size markers (Amersham) were included. The membrane was incubated for 60 min at 20° C. in blocking buffer containing 5% milk powder before overnight incubation at 4° C. with anti-OTR, anti-MT2R (Santa Cruz Biotechnology), anti-Cx43 antiserum (Millipore) or anti-actin (Sigma) at a dilution of 1:1000 in blocking buffer. Following washing in buffer (20 mM Tris, pH 7.6+[…] NaCl+0.05% Tween-20), the membrane was incubated at 20° C. for 1 h with a peroxidase-conjugated affinity purified goat anti-rabbit immunoglobulin (Sigma) in a 1:2000 dilution. Chemiluminescent signals were then detected with the Pierce ECL Western Blotting Substrate (Pierce; USA) using CL-X Posure film (Pierce). Western blotting for phospho-myosin light chain kinase (Ser19) (Millipore) was performed with the following exceptions. Membranes were blocked with a 5% BSA/TBS solution for one hour. The primary antibody was diluted in TBS at a 1:500 dilution at 4° C. overnight with shaking. The goat anti-rabbit immunoglobulin was diluted 1:2000 in a 5% milk/TBST solution. Densitometric analysis was performed using AIS Image Analysis software (Ontario, Canada) of images acquired with a digital camera. Criterion for assessment of samples as immunonegative was the absence of a band after 1 hr of exposure. Western blots were repeated a minimum of three times to insure reproducibility.
# [5] = tested on: connexin 43 protein in hTERT cells; experiment: Western blot of Cx43 protein; settings: I-MEL-treated hTERT cells (FIG. 3B)
# Method: as §1
# For in vitro investigations cultured hTERT cells were collected by trypsinization and gentle scraping. Cells were suspended in PBS and pelleted by centrifugation. Protein extraction was performed according to the method of Shearman and colleagues^15. […] Chemiluminescent signals were then detected with the Pierce ECL Western Blotting Substrate (Pierce; USA) using CL-X Posure film (Pierce). […]
smiles,measurement,setting,value
"CCC(=O)NC1Cc2ccccc2C(c2ccccc2)C1 (centres unmarked) [4P-PDOT, 4-phenyl-2-propionamidotetralin]","effect of inhibitor on contractility of cells treated with OT, I-MEL or both",[1],reduced the synergistic effect of I-MEL to levels corresponding to treatment with OT alone
same,effect of inhibitor pretreatment on I-MEL-increased dye spread,[2]; 10 nM 4P-PDOT or 10 μM C1 before I-MEL,blocked
same,"dye migration, inhibitor alone","[2]; 4P-PDOT or C1 alone, data not shown",dye migration comparable to control levels
same,effect of inhibitor on I-MEL-induced Cx43 expression,[3],abolished the effect of I-MEL on Cx43 expression
same,effect of inhibitor pretreatment on I-MEL-induced myosin light chain phosphorylation,[4]; 10 nM 4P-PDOT or 10 μM C1 pretreatment,abolished
"COc1ccc2[nH]c(I)c(CCNC(C)=O)c2c1 [I-MEL, iodo-melatonin]",increase in contractility compared to treatment with OT alone,"[1]; co-treatment 1 nM I-MEL and 1 nM OT, hTERT cells",two-fold
same,contractility by I-MEL alone,"[1]; hTERT cells, I-MEL without OT",modest increases in hTERT contractility
same,effect of I-MEL on OT-induced contractility and sensitivity to OT,"[1]; hTERT cells, OT co-treated with I-MEL (FIG. 2A)",increase OT-induced contractility in a dose dependent manner
same,cell coupling / spread of lucifer yellow dye,"[2]; 1 nM I-MEL pretreated hTERT cells, 10 minutes after scrape loading",increased levels of cell coupling
same,Cx43 mRNA levels after 4 hrs,"[3]; 1 nM I-MEL, 4 hrs, hTERT cells","significant, but transient increases; also recorded: elevated"
same,Cx43 mRNA levels after 8 hrs,"[3]; 1 nM I-MEL, 8 hrs, hTERT cells",returned to untreated levels
same,effect of I-MEL on OT-induced myosin light chain phosphorylation,"[4]; 1 nM I-MEL with OT, hTERT cells (FIG. 2D)",increased dramatically
same,"myosin light chain phosphorylation, I-MEL treatment alone","[4]; 1 nM I-MEL, hTERT cells (FIG. 2D)",modest increases in myosin light chain phosphorylation
same,Cx43 protein levels,[5],upregulation of Cx43 protein levels
"CC[C@H](C)[C@@H]1NC(=O)[C@H](Cc2ccc(O)cc2)NC(=O)[C@@H](N)CSSC[C@@H](C(=O)N2CCC[C@H]2C(=O)N[C@@H](CC(C)C)C(=O)NCC(N)=O)NC(=O)[C@H](CC(N)=O)NC(=O)[C@H](CCC(N)=O)NC1=O [OT, oxytocin]","myosin light chain phosphorylation, OT treatment","[4]; OT, hTERT cells (FIG. 2D)",increases
COc1ccc2c(c1)CC[C@@H]1[C@@H]2CC[C@]2(C)[C@@H](NCCCCCCN3C(=O)C=CC3=O)CC[C@@H]12 [U73122],"effect of inhibitor on contractility of cells treated with OT, I-MEL or both",[1],completely abolished contractility
same,effect of inhibitor on I-MEL-induced Cx43 expression,[3],abolished the effect of I-MEL on Cx43 expression
